# Results: patent publication US4477444A, “Antracycline glycosides, pharmaceutical compositions and method of use” (priority 1981, dated 1984)
# Assays:
# Hela cells = assay: Activity on Hela cells cloning efficiency in vitro, treatment for 24 hours; format: cell-based; conditions: for cytotoxicity relative to daunorubicin and doxorubicin: Hela cells cloning efficiency in vitro; for % of controls (Hela cells cloning efficiency): 24 hours
# P388 leukemia = assay: Activity against P388 ascitic leukemia in mice, i.p. treatment on day 1 after tumor inoculation; format: in vivo; conditions: for antitumor activity (overall conclusion): conclusion from all studies; for potency relative to the corresponding parent compounds / toxicity relative to the corresponding parent compounds: i.p. day 1, P388 leukemia mice
# Description: (§1) Activity against P388 ascitic leukemia of XOO-0148 and
# (§2) Treatment i.p. on day 1 after tumor inoculation
# (§3) ^(a) T/C % = median survival time of treated mice/median survival tim
# [1] = Activity against i.v. inoculated Gross leukemia in mice, i.v. treatment on day 1 after tumor inoculation; format: in vivo; conditions: mouse, in vivo, iv; i.v. day 1, Gross leukemia mice; read-out: maximal tolerated dose
# Protocol: (§4) Compound XOO-0148 was also tested on the i.v. inoculated Gross leukemia. Mice were treated i.v. on day 1.
# (§5) Activity against Gross leukemia of XOO-0148
# (§6) Treatment i.v. on day 1 after tumor inoculation
# as §3
# Gross leukemia = assay: as above; format: in vivo
# Protocol: as §4, §5, §6, §3
# [2] = Activity against P388 ascitic leukemia in mice, i.p. treatment on day 1 after tumor inoculation; format: in vivo; conditions: mouse, in vivo, ip; for MTD: i.p. day 1, P388 leukemia mice, read-out: maximal tolerated dose
# Description: as §1, §2, §3
# [3] = dose 12.5 (dose unit not given)
structure (smiles),measurement,setting,value
"COc1cccc2c1C(=O)c1c(O)c3c(c(O)c1C2=O)C[C@@](O)(C(C)=O)C[C@@H]3O[C@H]1C[C@@H](N)C[C@H](C)O1 [XOO-0148, 4'-deoxy-3'-epi-daunorubicin]",cytotoxicity relative to daunorubicin and doxorubicin,Hela cells,less cytotoxic than daunorubicin and doxorubicin
same,% of controls (Hela cells cloning efficiency),Hela cells; dose 1.5 (dose unit not given),89%
same,% of controls (Hela cells cloning efficiency),Hela cells; dose 3.1 (dose unit not given),100%
same,% of controls (Hela cells cloning efficiency),Hela cells; dose 6.2 (dose unit not given),98%
same,% of controls (Hela cells cloning efficiency),Hela cells; [3],111%
same,% of controls (Hela cells cloning efficiency),Hela cells; dose 25 (dose unit not given),"74,95%"
same,% of controls (Hela cells cloning efficiency),Hela cells; dose 50 (dose unit not given),86%
same,% of controls (Hela cells cloning efficiency),Hela cells; dose 100 (dose unit not given),10%
same,T/C % (median survival time of treated mice/median survival time of controls x100),P388 leukemia; 5.1 mg/kg i.p. day 1,110%
same,Toxicity Death,P388 leukemia; 5.1 mg/kg i.p. day 1,0/10
same,T/C % (median survival time of treated mice/median survival time of controls x100),P388 leukemia; 9.2 mg/kg i.p. day 1,120%
same,Toxicity Death,P388 leukemia; 9.2 mg/kg i.p. day 1,0/10
same,T/C % (median survival time of treated mice/median survival time of controls x100),P388 leukemia; 16.6 mg/kg i.p. day 1,130%
same,Toxicity Death,P388 leukemia; 16.6 mg/kg i.p. day 1,0/10
same,toxicity at the maximal dose tested,P388 leukemia; 30 mg/kg i.p.,not toxic
same,T/C % (median survival time of treated mice/median survival time of controls x100),P388 leukemia; 30 mg/kg i.p. day 1,145%
same,Toxicity Death,P388 leukemia; 30 mg/kg i.p. day 1,0/10
same,antitumor activity relative to daunorubicin,P388 leukemia; 30 mg/kg i.p. vs daunorubicin at 2.9 mg/kg,about as active as daunorubicin
same,antitumor activity (overall conclusion),P388 leukemia,remarkable antitumor activity
same,potency relative to the corresponding parent compounds,P388 leukemia,less potent than the corresponding parent compounds
same,toxicity relative to the corresponding parent compounds,P388 leukemia,less toxic
same,MTD,[1],22.5 mg/kg
same,T/C % (median survival time of treated mice/median survival time of controls x100),Gross leukemia; 22.5 mg/kg i.v. day 1,240%
same,Toxicity Death,Gross leukemia; 22.5 mg/kg i.v. day 1,0/10
same,antitumor activity relative to daunorubicin,Gross leukemia; 22.5 mg/kg i.v. vs daunorubicin at 6 mg/kg,about as active as daunorubicin
same,T/C % (median survival time of treated mice/median survival time of controls x100),Gross leukemia; 33.7 mg/kg i.v. day 1,150%
same,Toxicity Death,Gross leukemia; 33.7 mg/kg i.v. day 1,6/10
same,T/C % (median survival time of treated mice/median survival time of controls x100),Gross leukemia; 50 mg/kg i.v. day 1,120%
same,Toxicity Death,Gross leukemia; 50 mg/kg i.v. day 1,10/10
same,toxicity relative to daunorubicin,"Gross leukemia; i.v. day 1, Gross leukemia mice",less toxic than daunorubicin
"COc1cccc2c1C(=O)c1c(O)c3c(c(O)c1C2=O)C[C@@](O)(C(=O)CO)C[C@@H]3O[C@H]1C[C@@H](N)C[C@H](C)O1 [XOO-0155, 4'-deoxy-3'-epi-doxorubicin]",cytotoxicity relative to daunorubicin and doxorubicin,Hela cells,less cytotoxic than daunorubicin and doxorubicin
same,% of controls (Hela cells cloning efficiency),Hela cells; dose 100 (dose unit not given),"12,5%"
same,mortality,"[2]; 22.5 mg/kg i.p. day 1, read-out: Toxicity Death",10%
same,MTD,[2],22.5 mg/kg
same,T/C % (median survival time of treated mice/median survival time of controls x100),P388 leukemia; 15 mg/kg i.p. day 1,195%
same,Toxicity Death,P388 leukemia; 15 mg/kg i.p. day 1,0/10
same,T/C % (median survival time of treated mice/median survival time of controls x100),P388 leukemia; 22.5 mg/kg i.p. day 1,235%
same,antitumor effect relative to doxorubicin,P388 leukemia; 22.5 mg/kg i.p. vs doxorubicin at 10 mg/kg,lower than that observed after treatment with doxorubicin
same,T/C % (median survival time of treated mice/median survival time of controls x100),P388 leukemia; 33.7 mg/kg i.p. day 1,260%
same,Toxicity Death,P388 leukemia; 33.7 mg/kg i.p. day 1,4/10
same,T/C % (median survival time of treated mice/median survival time of controls x100),P388 leukemia; 50 mg/kg i.p. day 1,60%
same,Toxicity Death,P388 leukemia; 50 mg/kg i.p. day 1,8/10
same,antitumor activity (overall conclusion),P388 leukemia,remarkable antitumor activity
same,potency relative to the corresponding parent compounds,P388 leukemia,less potent than the corresponding parent compounds
same,toxicity relative to the corresponding parent compounds,P388 leukemia,less toxic
same,antitumor effect,P388 leukemia; maximal tolerated dose 22.5 mg/kg i.p.,remarkable antitumor effect
"COc1cccc2c1C(=O)c1c(O)c3c(c(O)c1C2=O)C[C@@](O)(C(=O)CO)C[C@@H]3O[C@H]1C[C@H](N)[C@H](O)[C@H](C)O1 [Doxorubicin, doxorubicin, reference compound]",% of controls (Hela cells cloning efficiency),Hela cells; [3],"63,93%"
same,% of controls (Hela cells cloning efficiency),Hela cells; dose 25 (dose unit not given),"26,22%"
same,MTD,[2],10 mg/kg
same,T/C % (median survival time of treated mice/median survival time of controls x100),P388 leukemia; 4.4 mg/kg i.p. day 1,245%
same,Toxicity Death,P388 leukemia; 4.4 mg/kg i.p. day 1,0/10
same,T/C % (median survival time of treated mice/median survival time of controls x100),P388 leukemia; 6.6 mg/kg i.p. day 1,255%
same,Toxicity Death,P388 leukemia; 6.6 mg/kg i.p. day 1,0/10
same,T/C % (median survival time of treated mice/median survival time of controls x100),P388 leukemia; 10 mg/kg i.p. day 1,345%
same,Toxicity Death,P388 leukemia; 10 mg/kg i.p. day 1,0/10
"COc1cccc2c1C(=O)c1c(O)c3c(c(O)c1C2=O)C[C@@](O)(C(C)=O)C[C@@H]3O[C@H]1C[C@H](N)[C@H](O)[C@H](C)O1 [Daunorubicin, daunorubicin, reference compound]",% of controls (Hela cells cloning efficiency),Hela cells; dose 6.2 (dose unit not given),"90,48%"
same,% of controls (Hela cells cloning efficiency),Hela cells; [3],"44,19%"
same,MTD,[2],2.9 mg/kg
same,T/C % (median survival time of treated mice/median survival time of controls x100),P388 leukemia; 2.9 mg/kg i.p. day 1,155%
same,Toxicity Death,P388 leukemia; 2.9 mg/kg i.p. day 1,0/10
same,T/C % (median survival time of treated mice/median survival time of controls x100),P388 leukemia; 4.4 mg/kg i.p. day 1,160%
same,Toxicity Death,P388 leukemia; 4.4 mg/kg i.p. day 1,2/10
same,T/C % (median survival time of treated mice/median survival time of controls x100),P388 leukemia; 6.6 mg/kg i.p. day 1,150%
same,Toxicity Death,P388 leukemia; 6.6 mg/kg i.p. day 1,5/10
same,MTD,[1],6 mg/kg
same,T/C % (median survival time of treated mice/median survival time of controls x100),Gross leukemia; 4.6 mg/kg i.v. day 1,180%
same,Toxicity Death,Gross leukemia; 4.6 mg/kg i.v. day 1,0/10
same,T/C % (median survival time of treated mice/median survival time of controls x100),Gross leukemia; 6 mg/kg i.v. day 1,250%
same,Toxicity Death,Gross leukemia; 6 mg/kg i.v. day 1,0/10
same,T/C % (median survival time of treated mice/median survival time of controls x100),Gross leukemia; 7.8 mg/kg i.v. day 1,250%
same,Toxicity Death,Gross leukemia; 7.8 mg/kg i.v. day 1,3/10
